The source of these data is BindingDB's records for doi:10.1007/pl00005326 (Schering-Plough Research Institute, 1999).

A value given as a limit tells only on which side of the number the result lay.

This assay has as its target T1, Adenosine receptor A3 (Homo sapiens, UniProt P0DMS8).
T1 sequence (P0DMS8 whole entry): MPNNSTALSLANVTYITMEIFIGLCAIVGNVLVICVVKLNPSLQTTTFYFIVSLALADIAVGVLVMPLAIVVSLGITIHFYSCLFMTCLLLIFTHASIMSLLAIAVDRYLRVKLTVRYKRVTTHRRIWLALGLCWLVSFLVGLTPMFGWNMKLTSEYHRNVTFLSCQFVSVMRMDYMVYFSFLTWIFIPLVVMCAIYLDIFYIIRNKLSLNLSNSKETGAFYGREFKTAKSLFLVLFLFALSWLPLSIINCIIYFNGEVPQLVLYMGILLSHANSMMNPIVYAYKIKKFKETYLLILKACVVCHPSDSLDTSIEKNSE

For the molecule `Nc1nc(NCCc2ccc(O)cc2)nc2nc(-c3ccco3)nn12`, the Ki (commonly the dissociation constant of the complex between target and ligand, obtained from inhibition or displacement) is more than 10 µM. In the case of `Nc1nc2ccc(Cl)cc2c2nc(-c3ccco3)nn12` it was 0.095 µM. In turn, `Nc1nc2c(cnn2CCc2ccccc2)c2nc(-c3ccco3)nn12` gave a Ki of more than 10 µM.
